This note sets out measurements from PubChem BioAssay (NCI).

Some test systems named below: BT-549 breast; CAKI-1 renal; HOP-62 NSCLC; MALME-3M melanoma; NCI-H23 lung; NCI-H460 lung; NCI-H522 lung; OVCAR-3 ovarian; SK-MEL-28 melanoma; SR leukemia.
What all share (experiment): inhibition of tumour cell growth, NCI panel, 48 h

The structures appear in SMILES notation. Where a name gives a salt, the structure may show the parent alone.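 Protocol summary: plate cells (96-well), add compound at 5 concentrations, incubate 48 h, interpolate endpoints linearly. TGI: total growth inhibition.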 Where a SMILES comes first, the peptide text is derived from it. The star is where a group is joined. Tfa = O=C(C(F)(F)F)*

Take `CN(C)c1ccc(/C=c2/c3ccccc3n3c2c2ccccc2[n+]3C)cc1`: the TGI is 1.03 µM with BT-549 breast; 8.53 µM with CAKI-1 renal; 16.2 µM in the assay on HOP-62 NSCLC; 1.47 µM in the assay on MALME-3M melanoma; 3.45 µM with NCI-H23 lung; above 38.2 µM in the assay on NCI-H460 lung. For the same molecule, the TGI in the assay on NCI-H522 lung was found to be 0.619 µM; in the assay on OVCAR-3 ovarian, 4.42 µM; in the assay on SK-MEL-28 melanoma, 2.08 µM; in the assay on SR leukemia, 1.98 µM.
As for `O=C(CN1CCN(Cc2ccccc2)CC1)c1ccc2[nH]c(=O)oc2c1`, the TGI was above 100 µM with BT-549 breast; above 100 µM in the assay with CAKI-1 renal; above 100 µM in the assay with HOP-62 NSCLC; 51.2 µM in the assay on MALME-3M melanoma; above 100 µM with NCI-H23 lung; above 100 µM in the assay with NCI-H460 lung. In addition, the TGI in the assay on NCI-H522 lung, with OVCAR-3 ovarian, in the assay on SK-MEL-28 melanoma and with SR leukemia was above 100 µM each time.
On to `NCCSc1nc2ccccc2s1`, for which the TGI is 93.8 µM in the assay on BT-549 breast; above 100 µM in the assay on CAKI-1 renal; 62.3 µM in the assay on HOP-62 NSCLC; above 100 µM in the assay with MALME-3M melanoma; above 100 µM in the assay with NCI-H23 lung; above 100 µM in the assay with NCI-H460 lung. Further, the TGI with NCI-H522 lung was 75.7 µM; in the assay on OVCAR-3 ovarian, above 100 µM; in the assay on SK-MEL-28 melanoma it was above 100 µM; in the assay with SR leukemia, 79.5 µM.
Regarding `NCC(=O)NC1(c2cc3ccccc3s2)CCCCC1`, the TGI with BT-549 breast was above 100 µM; in the assay on CAKI-1 renal it was above 100 µM; with HOP-62 NSCLC, above 100 µM; in the assay on MALME-3M melanoma it was 36.3 µM; in the assay with NCI-H23 lung, above 100 µM; with NCI-H460 lung, above 100 µM. Also, the TGI was above 100 µM with NCI-H522 lung, above 100 µM in the assay on OVCAR-3 ovarian, 39.8 µM with SK-MEL-28 melanoma and 19.2 µM in the assay with SR leukemia.
As to `COc1ccc(/C=C2\CCCC(CN(C)C)C2=O)cc1` (stereo not given), the TGI stood at 3.9 µM in the assay with BT-549 breast; 3.15 µM in the assay with CAKI-1 renal; 35.7 µM in the assay on HOP-62 NSCLC; 6.95 µM in the assay with MALME-3M melanoma; 13.9 µM with NCI-H23 lung; 48.4 µM in the assay with NCI-H460 lung. The TGI in the assay with NCI-H522 lung was 2.85 µM; in the assay with OVCAR-3 ovarian, 4.99 µM; in the assay with SK-MEL-28 melanoma, 3.77 µM; in the assay with SR leukemia, 2.42 µM.
With `COc1cc(C=O)ccc1Oc1nnnn1-c1ccccc1`, the TGI with BT-549 breast is above 100 µM; in the assay with CAKI-1 renal it was 85.3 µM; with HOP-62 NSCLC, above 100 µM; in the assay on MALME-3M melanoma it was above 100 µM; in the assay on NCI-H23 lung, above 100 µM; in the assay with NCI-H460 lung, above 100 µM. The TGI with NCI-H522 lung is above 100 µM; with OVCAR-3 ovarian it was above 100 µM; in the assay with SK-MEL-28 melanoma it was above 100 µM; with SR leukemia it was 51.1 µM.
For the molecule `O=C(O)CC(NC(=O)C(F)(F)F)C(=O)NC(Cc1ccc(O)cc1)C(=O)O` (stereo not drawn) (Tfa-Asp-Tyr-OH; configuration not given here), the TGI in the assay on BT-549 breast, in the assay with CAKI-1 renal, with HOP-62 NSCLC, with MALME-3M melanoma, in the assay on NCI-H23 lung and in the assay on NCI-H460 lung was above 50 µM throughout. Besides, the TGI in the assay with NCI-H522 lung, with OVCAR-3 ovarian, in the assay on SK-MEL-28 melanoma and in the assay on SR leukemia was above 50 µM each time.
In the case of `C=CCN1CCC(OC(=O)C(O)(C#CC)C2CCCC2)CC1` (stereo not given), the TGI with BT-549 breast, in the assay on CAKI-1 renal, with HOP-62 NSCLC, with MALME-3M melanoma, in the assay with NCI-H23 lung and in the assay with NCI-H460 lung was above 100 µM throughout. Also, the TGI in the assay with NCI-H522 lung, in the assay on OVCAR-3 ovarian, with SK-MEL-28 melanoma and in the assay on SR leukemia was above 100 µM throughout.
With `C/C=C/[C@H]1O[C@@](O)([C@@H](C)[C@H](O)[C@H](C)[C@H]2OC(=O)/C(OC)=C/C(C)=C/[C@@H](C)[C@@H](O)[C@@H](CC)[C@@H](O)[C@H](C)C/C(C)=C/C=C/[C@@H]2OC)C[C@H](OC2CC(O)C(O)C(C)O2)[C@@H]1C` (stereo not given in full), the TGI in the assay with BT-549 breast was found to be 14.1 µM; with CAKI-1 renal, 11.9 µM; in the assay with HOP-62 NSCLC, 2.7 µM; with MALME-3M melanoma, 0.907 µM; with NCI-H23 lung it was 17.5 µM; in the assay on NCI-H460 lung it was 4.81 µM. The TGI worked out at 1.48 µM in the assay on NCI-H522 lung, 6.27 µM with OVCAR-3 ovarian, 14.7 µM in the assay with SK-MEL-28 melanoma and 0.75 µM in the assay with SR leukemia.
Turning to `C=C(C)C(=O)O[C@H]1C/C(CO)=C/CCC(=C)C(OC(C)=O)[C@H]2OC(=O)C(=C)[C@H]12` (stereo not given in full), the TGI in the assay with BT-549 breast turned out to be 12.1 µM; with CAKI-1 renal, 21.5 µM; with HOP-62 NSCLC it was 73.8 µM; in the assay on MALME-3M melanoma, 26.7 µM; with NCI-H23 lung it was 25 µM; in the assay on NCI-H460 lung, 41.7 µM. For the same molecule, the TGI with NCI-H522 lung is 11 µM; in the assay with OVCAR-3 ovarian it was 18.7 µM; with SK-MEL-28 melanoma it was 20.6 µM; in the assay with SR leukemia it was 17.5 µM.
With `CC(=O)[C@@H]1[C@@H](OC(=O)CCC(C)COC2OC(CO)C(O)C(O)C2O)C[C@H]2[C@@H]3CC=C4C[C@@H](OC5OC(CO)C(OC6OC(C)C(O)C(O)C6O)C(O)C5OC5OC(C)C(O)C(O)C5O)CC[C@]4(C)[C@H]3CC[C@]12C` (stereo not given in full), the TGI in the assay on BT-549 breast, in the assay with CAKI-1 renal, in the assay on HOP-62 NSCLC, in the assay with MALME-3M melanoma, in the assay on NCI-H23 lung and in the assay with NCI-H460 lung was above 100 µM in each case. Besides, the TGI in the assay on NCI-H522 lung was 97 µM; in the assay with OVCAR-3 ovarian it was above 100 µM; in the assay on SK-MEL-28 melanoma, above 100 µM; with SR leukemia, above 100 µM.
